Results: US20250049778A1, “CRYSTALLINE FORM OF GLP-1 RECEPTOR AGONIST AND PREPARATION METHOD THEREFOR” (JIANGSU HENGRUI PHARMACEUTICALS CO., LTD., priority 2021, published 2025)

Legend:
Format in all cases: physicochemical
[1] = Hygroscopicity of crystal forms by dynamic vapor sorption (DVS) at 25° C.; settings: for Crystal form after DVS: two cycles
Protocol: Surface Measurement Systems advantage 2 is used for detection at 25° C. The humidity is 50%-95%-0%-95%-50% RH. The step is 10%. The criterion is that the mass change dM/dT for each step is less than 0.002%. TMAX is 360 min. Two cycles are carried out.
Surface Measurement Systems intrinsic DVS was used at 25° C. The observed humidity ranged from 0% to 95%. The step was 10%. The criterion was that the mass change dM/dT for each step was less than 0.002%. TMAX was 360 min. Two cycles were carried out.

[2] = Stability of crystal forms placed open under illumination, high temperature and high humidity, 30 days; settings: for Physical and chemical stability (summary): illumination, 40° C. and 60° C., 75% RH and 92.5% RH
Text: The sampling and investigation period was 30 days.

[3] = Long-term/accelerated stability, sealed with aluminum foil bag
Text: The results were as shown below.

[4] = Illumination (4500 Lux), 5 days
[5] = Illumination (4500 Lux), 10 days
[6] = Illumination (4500 Lux), 30 days

| Structure (SMILES) | Hygroscopic weight gain 0.0% RH to 80.0% RH [1] | Crystal form after DVS [1] | Purity % ([2]; 40° C., 5 days) | Purity % ([2]; 40° C., 10 days) | Purity % ([2]; 40° C., 30 days) | Purity % ([2]; 60° C., 5 days) | Purity % ([2]; 60° C., 10 days) | Purity % ([2]; 60° C., 30 days) | Purity % ([2]; 75% RH, 5 days) | Purity % ([2]; 75% RH, 10 days) | Purity % ([2]; 75% RH, 30 days) | Purity % ([2]; 92.5% RH, 5 days) | Purity % ([2]; 92.5% RH, 10 days) | Purity % ([2]; 92.5% RH, 30 days) | Purity % [2, 4] | Purity % [2, 5] | Purity % [2, 6] | Purity % ([2]; Initial condition, 0 days) | Physical and chemical stability (summary) ([2]; 30 days) | Purity % ([3]; 25° C./60% RH, 1 month) | also measured |
| --- | --- | --- | --- | --- | --- | --- | --- | --- | --- | --- | --- | --- | --- | --- | --- | --- | --- | --- | --- | --- | --- |
| O=C(O)c1ccc2nc(CN3CCC(c4cccc5c4O[C@@H](c4ccc(Cl)cc4F)CO5)CC3)n(C[C@@H]3CCO3)c2c1 [Crystal form A of Compound A, 2-((4-((S)-3-(4-chloro-2-fluorophenyl)-2,3-dihydrobenzo[b][1,4]dioxan-5-yl)piperidin-1-yl)methyl)-1-(((S)-oxetan-2-yl)methyl)-1H-benzo[d]imidazole-6-carboxylic acid] | 0.65% | Unchanged | 98.8% | 98.8% | 98.8% | 98.8% | 98.7% | 98.8% | 98.7% | 98.7% | 98.7% | 98.8% | 98.7% | 98.8% | 98.7% | 98.7% | 98.8% | 98.7% | good physical and chemical stability | 99.5% | Purity % ([3]; 25° C./60% RH, 3 months): 99.5%; Purity % ([3]; 25° C./60% RH, 6 months): 99.5%; Crystal form ([3]; 25° C./60% RH, up to 6 months): Unchanged; Purity % ([3]; 40° C./75% RH, 1 month): 99.5%; Purity % ([3]; 40° C./75% RH, 3 months): 99.5%; Purity % ([3]; 40° C./75% RH, 6 months): 99.5%; Crystal form ([3]; 40° C./75% RH, up to 6 months): Unchanged; Purity % ([3]; Initial condition): 99.5%; Physical and chemical stability (summary) ([3]; placed for 6 months under long-term accelerated conditions): good physical and chemical stability |
| O=C(O)c1ccc2nc(CN3CCC(c4cccc5c4O[C@@H](c4ccc(Cl)cc4F)CO5)CC3)n(C[C@@H]3CCO3)c2c1 [Crystal form D of Compound A, 2-((4-((S)-3-(4-chloro-2-fluorophenyl)-2,3-dihydrobenzo[b][1,4]dioxan-5-yl)piperidin-1-yl)methyl)-1-(((S)-oxetan-2-yl)methyl)-1H-benzo[d]imidazole-6-carboxylic acid] | 1.95% | Unchanged | 98.4% | 98.5% | 98.5% | 98.5% | 98.6% | 98.6% | 98.5% | 98.6% | 98.5% | 98.6% | 98.6% | 98.5% | 98.5% | 98.6% | 98.6% | 98.5% | good physical and chemical stability | 98.6% | Purity % ([3]; 25° C./60% RH, 2 months): 98.6%; Purity % ([3]; 25° C./60% RH, 3 months): 98.5%; Crystal form ([3]; 25° C./60% RH, up to 3 months): Unchanged; Purity % ([3]; 40° C./75% RH, 1 month): 98.6%; Purity % ([3]; 40° C./75% RH, 2 months): 98.4%; Purity % ([3]; 40° C./75% RH, 3 months): 98.3%; Crystal form ([3]; 40° C./75% RH, up to 3 months): Unchanged; Purity % ([3]; Initial condition): 98.5%; Physical and chemical stability (summary) ([3]; placed for 3 months under long-term accelerated conditions): good physical and chemical stability |
